Patent US8952169B2 (Genentech, Inc., priority 2012, dated 2015)

Key:
hNav1.7 [1] = target: T1, hNav1.7 (Homo sapiens (Human), UniProt Q15858); assay: Tritiated aryl sulfonamide binding to membranes from cells expressing hNav1.7 and the β1 subunit (competitive binding); settings: membranes with hNav1.7 and β1 subunit; [3H]compound displacement, 18 h, room temperature; read-out: NaV1.7 395 Memb Binding (IC50)
How it was run: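 Competitive displacement of 100 μM [3H]-labelled tritiated aryl sulfonamide from hNav1.7/β1 membranes, 18 h at room temperature in 100 mM NaCl, 20 mM Tris HCl pH 7.4. Non-specific binding defined with 1 μM unlabelled compound. Filter-bound radioactivity measured by liquid scintillation counting.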

hNav1.7 [2] = target: T1, hNav1.7; assay: Patch voltage clamp electrophysiology (PatchXpress), HEK-293 cells, inactivated state block; assay type: cell-based; settings: HEK-293 cells, β1 coexpressed; inactivated state, holding −60 mV; read-out: EP_PX 293 hNav1.7 (IC50)
hNav1.5 = hNav1.5 (Homo sapiens (Human), UniProt Q14524); assay: as above; settings: read-out: EP_PX 293 hNav1.5 (IC50), β1 coexpressed, holding −60 mV;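 also: control was the sodium current recorded in 0.5% DMSO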
Chain of hNav1.5 (Q14524 whole entry): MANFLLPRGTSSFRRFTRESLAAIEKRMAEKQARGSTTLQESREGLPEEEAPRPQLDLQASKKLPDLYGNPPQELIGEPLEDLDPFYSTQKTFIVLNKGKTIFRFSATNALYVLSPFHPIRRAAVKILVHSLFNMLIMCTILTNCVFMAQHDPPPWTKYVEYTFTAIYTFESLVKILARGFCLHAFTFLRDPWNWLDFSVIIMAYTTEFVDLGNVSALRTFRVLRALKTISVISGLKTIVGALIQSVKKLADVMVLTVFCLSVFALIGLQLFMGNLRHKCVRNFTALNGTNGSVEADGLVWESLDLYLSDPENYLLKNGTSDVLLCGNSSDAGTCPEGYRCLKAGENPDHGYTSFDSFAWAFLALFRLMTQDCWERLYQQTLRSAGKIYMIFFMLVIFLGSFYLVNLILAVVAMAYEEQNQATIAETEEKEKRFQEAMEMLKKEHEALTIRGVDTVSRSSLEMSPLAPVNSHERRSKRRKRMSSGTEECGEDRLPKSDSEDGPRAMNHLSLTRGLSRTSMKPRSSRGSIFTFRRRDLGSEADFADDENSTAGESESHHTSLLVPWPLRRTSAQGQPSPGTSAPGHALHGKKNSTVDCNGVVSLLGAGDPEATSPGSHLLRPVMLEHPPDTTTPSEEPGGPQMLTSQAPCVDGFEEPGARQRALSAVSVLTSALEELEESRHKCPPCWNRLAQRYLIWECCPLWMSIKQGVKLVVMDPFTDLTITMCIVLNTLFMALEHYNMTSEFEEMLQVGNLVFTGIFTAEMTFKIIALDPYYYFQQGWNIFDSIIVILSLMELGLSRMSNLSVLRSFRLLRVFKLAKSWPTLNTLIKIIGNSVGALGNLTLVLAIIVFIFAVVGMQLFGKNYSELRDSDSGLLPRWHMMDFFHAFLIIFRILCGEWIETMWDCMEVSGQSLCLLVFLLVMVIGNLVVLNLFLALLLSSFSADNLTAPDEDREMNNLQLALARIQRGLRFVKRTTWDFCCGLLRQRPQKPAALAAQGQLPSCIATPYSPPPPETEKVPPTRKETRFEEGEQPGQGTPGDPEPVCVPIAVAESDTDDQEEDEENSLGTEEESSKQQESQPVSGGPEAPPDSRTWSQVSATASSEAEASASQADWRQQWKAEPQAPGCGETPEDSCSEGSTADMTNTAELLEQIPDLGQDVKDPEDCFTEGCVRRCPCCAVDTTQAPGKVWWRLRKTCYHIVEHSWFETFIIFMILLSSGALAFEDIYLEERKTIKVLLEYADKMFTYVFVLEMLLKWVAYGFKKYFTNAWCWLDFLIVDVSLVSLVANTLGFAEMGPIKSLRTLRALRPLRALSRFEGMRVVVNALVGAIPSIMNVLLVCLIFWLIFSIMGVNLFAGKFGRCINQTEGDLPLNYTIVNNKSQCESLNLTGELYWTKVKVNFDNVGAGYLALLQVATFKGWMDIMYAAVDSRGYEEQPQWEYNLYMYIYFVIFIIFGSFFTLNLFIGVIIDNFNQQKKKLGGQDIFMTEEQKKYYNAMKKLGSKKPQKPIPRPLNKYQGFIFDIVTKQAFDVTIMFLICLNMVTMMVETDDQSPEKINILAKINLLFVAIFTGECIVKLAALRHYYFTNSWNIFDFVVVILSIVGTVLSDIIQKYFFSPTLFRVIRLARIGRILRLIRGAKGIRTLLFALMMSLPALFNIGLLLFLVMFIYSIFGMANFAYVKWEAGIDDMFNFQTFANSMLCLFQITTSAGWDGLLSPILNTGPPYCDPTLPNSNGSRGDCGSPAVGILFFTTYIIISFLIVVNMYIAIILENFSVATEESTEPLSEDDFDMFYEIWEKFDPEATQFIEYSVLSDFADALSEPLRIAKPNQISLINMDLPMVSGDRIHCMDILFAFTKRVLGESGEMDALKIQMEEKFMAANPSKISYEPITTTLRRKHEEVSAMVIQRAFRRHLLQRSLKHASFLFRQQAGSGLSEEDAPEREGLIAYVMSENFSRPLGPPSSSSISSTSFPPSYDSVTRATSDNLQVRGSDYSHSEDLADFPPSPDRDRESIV

T1 sequence (Q15858 whole entry, looked up): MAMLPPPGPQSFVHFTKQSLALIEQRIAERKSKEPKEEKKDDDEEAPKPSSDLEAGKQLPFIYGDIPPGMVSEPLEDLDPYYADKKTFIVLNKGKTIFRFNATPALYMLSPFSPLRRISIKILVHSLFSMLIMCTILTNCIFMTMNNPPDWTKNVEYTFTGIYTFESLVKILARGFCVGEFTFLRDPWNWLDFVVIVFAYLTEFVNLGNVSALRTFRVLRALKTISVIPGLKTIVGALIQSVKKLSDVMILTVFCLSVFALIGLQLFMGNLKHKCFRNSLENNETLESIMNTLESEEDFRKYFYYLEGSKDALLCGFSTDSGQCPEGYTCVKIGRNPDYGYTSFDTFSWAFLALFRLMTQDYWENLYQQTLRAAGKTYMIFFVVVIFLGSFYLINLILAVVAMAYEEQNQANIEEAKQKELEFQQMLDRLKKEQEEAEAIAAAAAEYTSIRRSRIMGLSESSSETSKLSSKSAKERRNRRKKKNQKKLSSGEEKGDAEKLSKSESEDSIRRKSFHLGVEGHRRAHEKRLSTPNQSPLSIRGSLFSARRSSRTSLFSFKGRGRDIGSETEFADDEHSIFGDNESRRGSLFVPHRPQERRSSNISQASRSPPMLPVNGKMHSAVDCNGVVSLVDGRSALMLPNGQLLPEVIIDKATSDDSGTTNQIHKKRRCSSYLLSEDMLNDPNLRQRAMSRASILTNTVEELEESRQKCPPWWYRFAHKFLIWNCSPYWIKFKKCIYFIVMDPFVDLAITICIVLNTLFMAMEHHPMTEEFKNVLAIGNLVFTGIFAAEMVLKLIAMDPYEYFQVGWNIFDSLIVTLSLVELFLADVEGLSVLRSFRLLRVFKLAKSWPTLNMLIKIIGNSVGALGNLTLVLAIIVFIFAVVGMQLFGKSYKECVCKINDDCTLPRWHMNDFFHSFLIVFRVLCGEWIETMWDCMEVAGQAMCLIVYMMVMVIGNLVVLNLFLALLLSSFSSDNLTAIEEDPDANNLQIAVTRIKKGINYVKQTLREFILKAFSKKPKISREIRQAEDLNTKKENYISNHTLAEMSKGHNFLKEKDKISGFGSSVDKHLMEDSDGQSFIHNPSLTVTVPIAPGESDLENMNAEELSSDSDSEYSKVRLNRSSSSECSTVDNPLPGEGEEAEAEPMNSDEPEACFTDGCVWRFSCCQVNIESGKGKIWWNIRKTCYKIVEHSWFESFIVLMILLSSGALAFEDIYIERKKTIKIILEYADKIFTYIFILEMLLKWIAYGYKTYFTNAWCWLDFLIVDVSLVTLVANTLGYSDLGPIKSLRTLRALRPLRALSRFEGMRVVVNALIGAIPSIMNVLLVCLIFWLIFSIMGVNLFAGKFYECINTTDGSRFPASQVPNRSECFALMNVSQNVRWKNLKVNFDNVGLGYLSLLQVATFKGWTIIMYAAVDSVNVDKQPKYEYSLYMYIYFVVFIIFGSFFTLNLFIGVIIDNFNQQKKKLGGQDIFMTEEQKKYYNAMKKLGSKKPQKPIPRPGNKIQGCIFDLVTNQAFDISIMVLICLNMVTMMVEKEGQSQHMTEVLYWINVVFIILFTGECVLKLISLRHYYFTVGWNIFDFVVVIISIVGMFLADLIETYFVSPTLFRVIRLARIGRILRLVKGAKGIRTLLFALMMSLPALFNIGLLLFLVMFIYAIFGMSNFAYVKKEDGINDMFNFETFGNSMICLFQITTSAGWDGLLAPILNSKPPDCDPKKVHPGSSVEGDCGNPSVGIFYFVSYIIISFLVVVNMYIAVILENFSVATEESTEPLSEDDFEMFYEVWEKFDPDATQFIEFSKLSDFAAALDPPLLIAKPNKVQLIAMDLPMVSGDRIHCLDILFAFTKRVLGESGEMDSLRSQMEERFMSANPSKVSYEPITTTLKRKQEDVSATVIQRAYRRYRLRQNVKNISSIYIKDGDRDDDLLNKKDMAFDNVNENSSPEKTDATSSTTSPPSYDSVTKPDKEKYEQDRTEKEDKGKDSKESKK
T1 sequence (Q07699 whole entry partner, looked up): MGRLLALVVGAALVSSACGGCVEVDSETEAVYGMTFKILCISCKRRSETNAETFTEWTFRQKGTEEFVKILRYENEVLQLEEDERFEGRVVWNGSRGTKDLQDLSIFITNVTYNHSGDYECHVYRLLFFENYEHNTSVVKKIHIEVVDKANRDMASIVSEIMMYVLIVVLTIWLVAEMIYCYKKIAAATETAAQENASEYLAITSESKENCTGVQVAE

| SMILES | IC50 (hNav1.7 [1]) [µM] | IC50 (hNav1.7 [2]) [µM] | IC50 (hNav1.5) [µM] |
| --- | --- | --- | --- |
| O=C(NS(=O)(=O)C1CC1)c1cc(C2CC2)c(OCC23CC4CC(C2)C(F)(F)C(C4)C3)cc1F | 0.003 | 0.008 | 0.13 |
| CS(=O)(=O)NC(=O)c1cc(C2CC2)c(OCC23CC4(F)CC(F)(CC(F)(C4)C2)C3)cc1F | 0.014 | 0.02 | 3.5 |
| O=C(NS(=O)(=O)N1CCC1)c1cc(C2CC2)c(O[C@H]2C3CC4CC2C[C@](Cl)(C4)C3)cc1F | 0.009 | 0.03 | 21.6 |
| COC1CN(S(=O)(=O)NC(=O)c2cc(C3CC3)c(OCC34CC5CC(CC(C5)C3)C4)cc2F)C1 | 0.003 | 0.0249 | 0.144 |

Continued, in another order:

| IC50 (hNav1.7 [1]) [µM] | IC50 (hNav1.7 [2]) [µM] | SMILES | IC50 (hNav1.5) [µM] |
| --- | --- | --- | --- |
| 0.011 | 0.014 | CS(=O)(=O)NC(=O)c1cc(C2CC2)c(OCC2CN(C(c3ccccc3)c3ccccc3)C2)cc1F [Example 440, 4-((1-benzhydrylazetidin-3-yl)methoxy)-5-cyclopropyl-2-fluoro-N-(methylsulfonyl)benzamide] | 2.54 |
| 0.0016 | 0.0031 | O=C(NS(=O)(=O)C1CC1)c1cc(C2CC2)c(OCC2(C(F)(F)F)CCCCC2)cc1F [Example 446, 5-cyclopropyl-N-(cyclopropylsulfonyl)-2-fluoro-4-((1-(trifluoromethyl)-cyclohexyl)methoxy)benzamide] | 0.16 |
| 0.004 | 0.002 | O=C(NS(=O)(=O)N1CCC1)c1cc(C2CC2)c(OCC2(C(F)(F)F)CCCC2)cc1F | 0.09 |
| 0.072 | 0.0179 | CS(=O)(=O)NC(=O)c1cnc(OCC23CC4CC(CC(C4)C2)C3)c(C2CC2)c1 | 2.58 |
| 0.29 | 0.063 | O=C(NS(=O)(=O)N1CCC1)c1cnc(OCC23CC4CC(CC(C4)C2)C3)c(C2CC2)c1 | 7.5 |
